Measured values from PubChem BioAssay (NCI).
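Where inhibition never reached the appropriate level, the endpoint shown equals the highest concentration tested. Otherwise, values were interpolated linearly from a five-concentration, 48-hour dose response in 96-well plates. Definition used: TGI = concentration required for complete inhibition of growth.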

Columns and labels:
Assay in all cases: NCI-60 cell line screen, 48 h
CAKI-1 renal = system: CAKI-1 renal
UACC-257 melanoma = system: UACC-257 melanoma
SN12C renal = system: SN12C renal
SF-268 CNS = system: SF-268 CNS
HCT-116 colon = system: HCT-116 colon
U251 CNS = system: U251 CNS
HCT-15 colon = system: HCT-15 colon
SK-MEL-28 melanoma = system: SK-MEL-28 melanoma
PC-3 prostate = system: PC-3 prostate
SK-MEL-2 melanoma = system: SK-MEL-2 melanoma
MDA-N = system: MDA-N
SK-MEL-5 melanoma = system: SK-MEL-5 melanoma
KM12 colon = system: KM12 colon
786-0 renal = system: 786-0 renal
OVCAR-4 ovarian = system: OVCAR-4 ovarian
UACC-62 melanoma = system: UACC-62 melanoma
NCI/ADR-RES ovarian = system: NCI/ADR-RES ovarian
OVCAR-3 ovarian = system: OVCAR-3 ovarian
NCI-H23 lung = system: NCI-H23 lung
HL-60(TB) leukemia = system: HL-60(TB) leukemia
COLO 205 colon = system: COLO 205 colon
NCI-H226 lung = system: NCI-H226 lung
OVCAR-5 ovarian = system: OVCAR-5 ovarian
SF-539 CNS = system: SF-539 CNS
SK-OV-3 ovarian = system: SK-OV-3 ovarian
DU-145 prostate = system: DU-145 prostate
RPMI-8226 leukemia = system: RPMI-8226 leukemia
OVCAR-8 ovarian = system: OVCAR-8 ovarian
SR leukemia = system: SR leukemia
CCRF-CEM leukemia = system: CCRF-CEM leukemia
TK-10 renal = system: TK-10 renal
UO-31 renal = system: UO-31 renal
MDA-MB-435 = system: MDA-MB-435
SW-620 colon = system: SW-620 colon
NCI-H460 lung = system: NCI-H460 lung
ACHN renal = system: ACHN renal
SNB-19 CNS = system: SNB-19 CNS
K-562 leukemia = system: K-562 leukemia
M14 melanoma = system: M14 melanoma
HT29 colon = system: HT29 colon
A498 renal = system: A498 renal
A549 NSCLC = system: A549 NSCLC
HOP-62 NSCLC = system: HOP-62 NSCLC
MDA-MB-231 breast = system: MDA-MB-231 breast
SF-295 CNS = system: SF-295 CNS
HOP-92 NSCLC = system: HOP-92 NSCLC
T-47D breast = system: T-47D breast
MOLT-4 leukemia = system: MOLT-4 leukemia
MCF7 breast = system: MCF7 breast
SNB-75 CNS = system: SNB-75 CNS
MALME-3M melanoma = system: MALME-3M melanoma
IGROV1 ovarian = system: IGROV1 ovarian
HCC-2998 colon = system: HCC-2998 colon
EKVX NSCLC = system: EKVX NSCLC

## CC(C)[Si](OC12CCC(CC1O)CC2C(=O)O)(C(C)C)C(C)C (stereo not drawn)
CAKI-1 renal
  TGI: 36.4 µM
UACC-257 melanoma
  TGI: 36.5 µM
SN12C renal
  TGI: > 100 µM
SF-268 CNS
  TGI: 27.9 µM
HCT-116 colon
  TGI: 23.8 µM
U251 CNS
  TGI: 31.4 µM
HCT-15 colon
  TGI: 24.8 µM
SK-MEL-28 melanoma
  TGI: 24.2 µM
PC-3 prostate
  TGI: 25 µM
SK-MEL-2 melanoma
  TGI: 27.7 µM
MDA-N
  TGI: 39.7 µM
SK-MEL-5 melanoma
  TGI: 51.6 µM
KM12 colon
  TGI: 26.2 µM
786-0 renal
  TGI: 26.8 µM
OVCAR-4 ovarian
  TGI: 25.1 µM
UACC-62 melanoma
  TGI: 27.6 µM
NCI/ADR-RES ovarian
  TGI: 33.6 µM
OVCAR-3 ovarian
  TGI: 28 µM
NCI-H23 lung
  TGI: 34.7 µM
HL-60(TB) leukemia
  TGI: 6.87 µM
COLO 205 colon
  TGI: 59.2 µM
NCI-H226 lung
  TGI: 31.6 µM
OVCAR-5 ovarian
  TGI: 30 µM
SF-539 CNS
  TGI: > 100 µM
SK-OV-3 ovarian
  TGI: 27.2 µM
DU-145 prostate
  TGI: 33.7 µM
RPMI-8226 leukemia
  TGI: 58.3 µM
OVCAR-8 ovarian
  TGI: 42.4 µM
SR leukemia
  TGI: > 100 µM
CCRF-CEM leukemia
  TGI: 70 µM
TK-10 renal
  TGI: 17.1 µM
UO-31 renal
  TGI: 26 µM
MDA-MB-435
  TGI: 31.8 µM
SW-620 colon
  TGI: 41.9 µM
NCI-H460 lung
  TGI: 20.2 µM
ACHN renal
  TGI: 29.1 µM
SNB-19 CNS
  TGI: 29.1 µM
K-562 leukemia
  TGI: > 100 µM
M14 melanoma
  TGI: 29.3 µM
HT29 colon
  TGI: 26.8 µM
A498 renal
  TGI: 31 µM
A549 NSCLC
  TGI: 28.3 µM
HOP-62 NSCLC
  TGI: 27.5 µM
MDA-MB-231 breast
  TGI: 38 µM
SF-295 CNS
  TGI: 29.2 µM
HOP-92 NSCLC
  TGI: 27.4 µM
T-47D breast
  TGI: 37.5 µM
MOLT-4 leukemia
  TGI: > 100 µM
MCF7 breast
  TGI: 31.7 µM
SNB-75 CNS
  TGI: 28.1 µM

## N=c1c2c(ncn1N)Oc1c(c(-c3ccccc3)nn1-c1ccccc1)C2c1ccc(Cl)cc1 (stereo not drawn)
CAKI-1 renal
  TGI: 3.71 µM
UACC-257 melanoma
  TGI: 3.71 µM
SN12C renal
  TGI: 3.89 µM
HCT-116 colon
  TGI: 3.03 µM
HCT-15 colon
  TGI: 3.65 µM
MALME-3M melanoma
  TGI: 3.1 µM
PC-3 prostate
  TGI: 3.01 µM
SK-MEL-2 melanoma
  TGI: 3.1 µM
MDA-N
  TGI: 3.86 µM
KM12 colon
  TGI: 2.99 µM
OVCAR-4 ovarian
  TGI: 3.24 µM
UACC-62 melanoma
  TGI: 3.16 µM
IGROV1 ovarian
  TGI: 2.8 µM
OVCAR-3 ovarian
  TGI: 3.11 µM
NCI-H23 lung
  TGI: 3.31 µM
HL-60(TB) leukemia
  TGI: > 100 µM
OVCAR-5 ovarian
  TGI: 2.93 µM
HCC-2998 colon
  TGI: 3.08 µM
SK-OV-3 ovarian
  TGI: 3.37 µM
RPMI-8226 leukemia
  TGI: > 100 µM
SR leukemia
  TGI: > 100 µM
CCRF-CEM leukemia
  TGI: > 100 µM
EKVX NSCLC
  TGI: 3.39 µM
TK-10 renal
  TGI: 3.47 µM
MDA-MB-435
  TGI: 3.46 µM
SW-620 colon
  TGI: 4.5 µM
NCI-H460 lung
  TGI: 2.99 µM
ACHN renal
  TGI: 3.46 µM
SNB-19 CNS
  TGI: 2.86 µM
K-562 leukemia
  TGI: > 100 µM
M14 melanoma
  TGI: 3.18 µM
HT29 colon
  TGI: 2.77 µM
A498 renal
  TGI: 4.32 µM
HOP-62 NSCLC
  TGI: 3.02 µM
MDA-MB-231 breast
  TGI: 5.21 µM
T-47D breast
  TGI: 4.99 µM
MOLT-4 leukemia
  TGI: > 100 µM
SNB-75 CNS
  TGI: 2.83 µM
